Assay results published in EP1310250A1, “Use of the compound 2-methoxyphenyl-1-methyl-5P-methylbenzoyl-pyrrol-2-acetamido acetate for the production of an antiinflammatory drug with prevention of gastric hypersecretion and renal impairment” (MEDOSAN Ricerca S.r.l., priority 1997, dated 1999).

System: gastric acid secretion
Test: Antisecretory activity in vivo in rat, histamine-induced acid secretion
Description: The methods used were those described by G Coruzzi, M. Adami, C. Pozzoli, E. Poli, G. Bertaccini (Pharmacology 1994;48: pages 69-76) and M. Leitold, W. Fleissig and A. Merk (Arzneim-Forsch/Drug Res. 34(I), Nr. 4, 1984).
The animals were treated in oral administration with amtolmetin guacyl 50 or 100 mg/kg, 1 h before the beginning of the perfusion with histamine. The controls received only the vehicle (CMC 1%).
After anaesthesia with urethan (1.25 g/kg i.p.), the oesophagus was ligated close to the stomach. Two cannulas of polyethylene are then inserted: one was inserted in the forestomach, the second one was inserted directly into the pyloric sphincter. The stomach was flushed with saline at 37°C (1 ml/min) and the flushed liquid, collected every 15 minutes, titred at ph 7 with NaOH 10^-2 M. The acid secretion was induced by an intravenous infusion (0.1 ml/min) of histamine (30 µmol/kg/h).
The acidity is expressed as µEqH^+/15 min.

In the case of `COc1ccccc1OC(=O)CNC(=O)Cc1ccc(C(=O)c2ccc(C)cc2)n1C` [amtolmetin guacyl, 2-methoxyphenyl-1-methyl-5p-methylbenzoylpyrrol-2-acetamido acetate], the acidity (50 mg/kg oral 1 h before histamine perfusion, time 0 min) was 4 µEqH^+/15', the acidity (50 mg/kg oral 1 h before histamine perfusion, time 15 min) was 4 µEqH^+/15' and the acidity (50 mg/kg oral 1 h before histamine perfusion, time 30 min) was 5 µEqH^+/15'. For the same molecule, the acidity (50 mg/kg oral 1 h before histamine perfusion, time 45 min) was 11 µEqH^+/15', the acidity (50 mg/kg oral 1 h before histamine perfusion, time 60 min) was 15 µEqH^+/15' and the acidity (50 mg/kg oral 1 h before histamine perfusion, time 75 min) was 17 µEqH^+/15'. For the same molecule, the acidity (50 mg/kg oral 1 h before histamine perfusion, time 90 min) was 19 µEqH^+/15', the acidity (50 mg/kg oral 1 h before histamine perfusion, time 105 min) was 18.5 µEqH^+/15' and the acidity (50 mg/kg oral 1 h before histamine perfusion, time 120 min) was 22 µEqH^+/15'. The acidity (50 mg/kg oral 1 h before histamine perfusion, time 135 min) was 20 µEqH^+/15', the acidity (100 mg/kg oral 1 h before histamine perfusion, time 0 min) was 8 µEqH^+/15' and the acidity (100 mg/kg oral 1 h before histamine perfusion, time 15 min) was 7 µEqH^+/15'. The acidity (100 mg/kg oral 1 h before histamine perfusion, time 30 min) was 9 µEqH^+/15', the acidity (100 mg/kg oral 1 h before histamine perfusion, time 45 min) was 11 µEqH^+/15' and the acidity (100 mg/kg oral 1 h before histamine perfusion, time 60 min) was 12 µEqH^+/15'. For the same molecule, the acidity (100 mg/kg oral 1 h before histamine perfusion, time 75 min) was 13 µEqH^+/15', the acidity (100 mg/kg oral 1 h before histamine perfusion, time 90 min) was 14 µEqH^+/15' and the acidity (100 mg/kg oral 1 h before histamine perfusion, time 105 min) was 15 µEqH^+/15'. The acidity (100 mg/kg oral 1 h before histamine perfusion, time 120 min) was 13 µEqH^+/15' and the acidity (100 mg/kg oral 1 h before histamine perfusion, time 135 min) was 14 µEqH^+/15'.
